Structures can show the parent of a compound that is named as a salt.
Columns and labels:
NDM-1 = biological target: T1, NDM-1 (Klebsiella pneumoniae, UniProt C7C422); experiment: Dose rate inhibition studies for IC50 determination, NDM-1 enzymatic assay; format: biochemical; conditions: inhibitor 0-800 μM, 3 parallel measurements, N.I. = no enzyme inhibitory activity observed; for Enzyme IC50 NDM-1: 10 nM NDM-1, 100 μM ZnCl2, imipenem substrate; for IC50: Enzyme IC50 NDM-1, 10 nM NDM-1, 100 μM ZnCl2, imipenem substrate
T1 construct: made in house
Method: (§1) The […] synthesized compounds 5a–l were tested for their inhibitory activities against NDM-1, VIM-2 (Table 1), and GIM-1 in an in vitro enzymatic assay (ESI ^†).[41] The inhibitory activity was measured using enzyme concentrations of 0.1 nM VIM-2, 10 nM NDM-1 or 1 nM GIM-1, with an excess Zn(II) (100 μM, see Experimental methods), with inhibitor compounds with concentrations from 0 to 800 μM. Each data point was measured in triplicates. […] This is in line with previous reports.[42,43]
(§2) A 100 μl solution with buffer (50 mM HEPES (pH 7.2), 100 μM ZnCl2, 2.5% DMSO), purified enzyme (0.1 nM VIM-2, 10 nM NDM-1 or 1 nM GIM-1) and 800–0 μM inhibitor was incubated in a 96 well plate at 25 °C for 5 min. In addition, the enzyme buffer contained 400 μg ml^−1 bovine serum albumin (BSA) to prevent protein unfolding and loss of activity due to low concentrations.[67,68] 100 μM of the reporter substrate nitrocefin (VIM-2, GIM-1) or imipenem (NDM-1) was added to the enzyme–inhibitor solution and the increase in absorbance at 482 nm (nitrocefin) or 300 nm (imipenem) was recorded on a Spectramax M4 spectrophotometer (Molecular Devices). Each data point was performed in triplicates and the initial velocity for each inhibitor concentration was analyzed by a log [inhibitor] vs. response curve fitting to calculate IC50 in GraphPad Prism 9.2 software.

VIM-2 = biological target: T2, VIM-2 (Escherichia coli, UniProt Q5U7L7); experiment: Dose rate inhibition studies for IC50 determination, VIM-2 enzymatic assay; format: biochemical; conditions: Enzyme IC50 VIM-2, 0.1 nM VIM-2, 100 μM ZnCl2, nitrocefin substrate, inhibitor 0-800 μM, 3 parallel measurements; N.I. = no enzyme inhibitory activity observed
T2 construct: made in house
Method: as §1, §2

15N-labelled VIM-2 = biological target: T3, 15N-labelled VIM-2 (Escherichia coli, UniProt Q5U7L7); experiment: 1H,15N HSQC NMR chemical shift perturbation titration, VIM-2; format: binding; conditions: VIM-2 Kd, 0-16 equiv. ligand, pH 7.0, 310 K
T3 construct: made in house
Method: (§3) Solution NMR spectroscopy is a powerful tool to assess protein–ligand interactions under close to physiological conditions.[47] We, therefore, performed NMR chemical shift perturbation (CSP, for details, see section S8, ESI ^†) experiments to identify the amino acid residues of NDM-1 and VIM-2 that are involved in inhibitor binding, making use of the previously published protein assignments.[48,49] Titrations were conducted using ^15N-labelled proteins with 0, 0.5, 1, 2, 4, 8, and 16 equiv. of 5 inhibitors for NDM-1 and of 7 inhibitors for VIM-2.
(§4) For the titrations, ^15N-labelled NDM-1 and ^15N-labelled VIM-2 (250 μM), and titrated ligands (0.5 equiv. in 1 μL) were prepared in the same buffer as the protein (20 mM KPO4, 0.1 mM ZnCl2, pH 7.0 with 10% D2O and 2.5% DMSO-d6). ^1H,^15N HSQC spectra were acquired with 128 × 1024 complex points (F1 × F2) and spectral width of 9090 × 2740 Hz on ^15N-labeled NDM-1/VIM-2 and with every titration step up to 1 : 16 ratio between protein : ligand (0, 0.5, 1, 2, 4, 8, and 16 equiv. of ligand). All experiments were recorded on a Bruker 600 MHz spectrometer at 310 K equipped with a 5 mm TCI cryogenic probe. The NMR data were processed on the MestReNova software with the Mnova Binding plugin. The weighted average chemical shift perturbations (CSP) for the backbone amides were calculated from the observed chemical shift differences in the proton and nitrogen dimensions using the equation (chemical shift scaling factors: FH = 1, FN = 0.156) CSP = Δδ1H,15N = [drawing 13] .
(§5) 7. Chemical shift perturbation histograms
(§6) Chemical shift perturbation was calculated according equation (1) 2
(§7) CSP = Δδ(1H,15N) = √(Δδ1H2 + (1⁄R × Δδ15N2) Rscale = 6.5 (1)
(§8) Where Δδ1H is the chemical shift change for proton dimension, Δδ15N is the chemical shift change for nitrogen dimension, Rscale is a
(§9) The chemical shift perturbations (CSP) were classified as significant (SSP) when the observed Δδ(1H,15N) was greater than the population
(§10) mean plus the standard deviation (µ+1σ) – solid line; (µ+2σ) – dashed line, and (µ+3σ) – dashed line.
(§11) Further on, Kd was calculated according: 3
(§12) ([P]+[L]+Kd)− √([P]+[L]+Kd)2−4[P][L]
(§13) ΔδmaxΔδobs = Δδmax 2[P] (2)
(§14) Where Kd is the dissociation constant, [P] and [L] are protein and ligand concentrations, respectively. Δδmax were estimated in
(§15) MestReNova by extrapolation of the obser ved chemical shift differences Δδobs.

15N-labelled NDM-1 = biological target: T4, 15N-labelled NDM-1 (Klebsiella pneumoniae, UniProt C7C422); experiment: 1H,15N HSQC NMR chemical shift perturbation titration, NDM-1; format: binding
T4 construct: made in house
Method: as §3, §4, §5, §6, §7, §8, §9, §10, §11, §12, §13, §14, §15

[1] = Estimated binding constant (Kd), residue 070F, Table S5, per-residue fit, NDM-1 070F
[2] = Estimated binding constant (Kd), residue 091T, Table S5, per-residue fit, NDM-1 091T
[3] = Estimated binding constant (Kd), residue 108E, Table S5, per-residue fit, NDM-1 108E
[4] = Estimated binding constant (Kd), residue 119T, Table S5, per-residue fit, NDM-1 119T
[5] = Estimated binding constant (Kd), residue 124D, Table S5, per-residue fit, NDM-1 124D
[6] = Estimated binding constant (Kd), residue 127G, Table S5, per-residue fit, NDM-1 127G
[7] = Estimated binding constant (Kd), residue 149A, Table S5, per-residue fit, NDM-1 149A
[8] = Estimated binding constant (Kd), residue 152E, Table S5, per-residue fit, NDM-1 152E
[9] = Estimated binding constant (Kd), residue 159H, Table S5, per-residue fit, NDM-1 159H
[10] = Estimated binding constant (Kd), residue 160S, Table S5, per-residue fit, NDM-1 160S
[11] = Estimated binding constant (Kd), residue 188G, Table S5, per-residue fit, NDM-1 188G
[12] = Estimated binding constant (Kd), residue 194I, Table S5, per-residue fit, NDM-1 194I
[13] = Estimated binding constant (Kd), residue 197G, Table S5, per-residue fit, NDM-1 197G
[14] = Estimated binding constant (Kd), residue 205F, Table S5, per-residue fit, NDM-1 205F
[15] = Estimated binding constant (Kd), residue 214K, Table S5, per-residue fit, NDM-1 214K
[16] = Estimated binding constant (Kd), residue 217S, Table S5, per-residue fit, NDM-1 217S
[17] = Estimated binding constant (Kd), residue 228H, Table S5, per-residue fit, NDM-1 228H
[18] = Estimated binding constant (Kd), residue 229Y, Table S5, per-residue fit, NDM-1 229Y
[19] = Estimated binding constant (Kd), residue 230A, Table S5, per-residue fit, NDM-1 230A
[20] = Estimated binding constant (Kd), residue 232S, Table S5, per-residue fit, NDM-1 232S
[21] = Estimated binding constant (Kd), residue 248M, Table S5, per-residue fit, NDM-1 248M
[22] = Estimated binding constant (Kd), residue 251S, Table S5, per-residue fit, NDM-1 251S
[23] = Estimated binding constant (Kd), residue 254D, Table S5, per-residue fit, NDM-1 254D
[24] = Estimated binding constant (Kd), residue 255S, Table S5, per-residue fit, NDM-1 255S
[25] = NDM-1 Kd, NMR chemical shift perturbation, 0-16 equiv. ligand, pH 7.0, 310 K

T1 sequence (C7C422 29-270 limits assumed): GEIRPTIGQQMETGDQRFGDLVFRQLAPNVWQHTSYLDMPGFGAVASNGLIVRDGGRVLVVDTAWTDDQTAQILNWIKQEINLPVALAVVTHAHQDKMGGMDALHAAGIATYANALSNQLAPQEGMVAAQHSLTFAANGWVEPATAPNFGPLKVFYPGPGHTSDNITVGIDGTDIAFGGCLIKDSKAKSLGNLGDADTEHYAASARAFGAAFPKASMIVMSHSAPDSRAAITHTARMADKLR
T4 sequence (C7C422 29-270 limits assumed): as above

| SMILES | Enzyme IC50 NDM-1 (NDM-1) | IC50 (VIM-2) [mM] | Kd (15N-labelled VIM-2) [mM] | Kd (15N-labelled NDM-1; [1]) [mM] | Kd (15N-labelled NDM-1; [2]) [mM] | Kd (15N-labelled NDM-1; [3]) [mM] | Kd (15N-labelled NDM-1; [4]) [mM] | Kd (15N-labelled NDM-1; [5]) [mM] | Kd (15N-labelled NDM-1; [6]) [mM] | Kd (15N-labelled NDM-1; [7]) [mM] | Kd (15N-labelled NDM-1; [8]) [mM] | Kd (15N-labelled NDM-1; [9]) [mM] | Kd (15N-labelled NDM-1; [10]) [mM] | Kd (15N-labelled NDM-1; [11]) [mM] | Kd (15N-labelled NDM-1; [12]) [mM] | Kd (15N-labelled NDM-1; [13]) [mM] | Kd (15N-labelled NDM-1; [14]) [mM] | Kd (15N-labelled NDM-1; [15]) [mM] | Kd (15N-labelled NDM-1; [16]) [mM] | Kd (15N-labelled NDM-1; [17]) [mM] | also measured |
| --- | --- | --- | --- | --- | --- | --- | --- | --- | --- | --- | --- | --- | --- | --- | --- | --- | --- | --- | --- | --- | --- |
| O=C(NC(C1CCCCN1)P(=O)(O)O)c1cccs1 (centres unmarked) [Compound 5b-2, (Piperidin-2-yl(thiophene-2-carboxamido)methyl)phos-phonic acid hydrochloride] | N.I. | 0.0072 ± 0.0004 | 1.4 ± 0.1 | – | – | – | – | – | – | – | – | – | – | – | – | – | – | – | – | – | – |
| O=C(NC(C1CCCCN1)P(=O)(O)O)c1cccs1 (centres unmarked) [Compound 5b-1, (Piperidin-2-yl(thiophene-2-carboxamido)methyl)phos-phonic acid hydrochloride] | – | 0.118 ± 0.06 | 0.4 ± 0.04 | 2.92 | 5.76 | 6.63 | 18.1 | 3.17 | 8.34 | 1.71 | 3.52 | 21.5 | 8.97 | 3.4 | 2.93 | 10.4 | 11 | 1.36 | 10.5 | 11 | Kd (15N-labelled NDM-1; Estimated binding constant (Kd), residue 191S, Table S5, per-residue fit, NDM-1 191S): 0.85 mM; Kd (15N-labelled NDM-1; Estimated binding constant (Kd), residue 211K, Table S5, per-residue fit, NDM-1 211K): 3.49 mM; Kd (15N-labelled NDM-1; [18]): 2.24 mM; Kd (15N-labelled NDM-1; [19]): 4.33 mM; Kd (15N-labelled NDM-1; [20]): 12.1 mM; Kd (15N-labelled NDM-1; [21]): 12.9 mM; Kd (15N-labelled NDM-1; [22]): 6.07 mM; Kd (15N-labelled NDM-1; Estimated binding constant (Kd), residue 252A, Table S5, per-residue fit, NDM-1 252A): 3.48 mM; Kd (15N-labelled NDM-1; [23]): 9.74 mM; Kd (15N-labelled NDM-1; [24]): 7.37 mM; Kd (15N-labelled NDM-1; [25]): 2 ± 0.1 mM; IC50 (NDM-1): 0.23 ± 0.028 mM |
| O=C(Cc1ccsc1)NC(C1CCCCN1)P(=O)(O)O (centres unmarked) [Compound 5j-1, (Piperidin-2-yl(2-(thiophen-3-yl)acetamido)methyl)phos-phonic acid hydrochloride] | – | 0.319 ± 0.069 | 0.9 ± 0.1 | 2.54 | 2.11 | 3.54 | 7.97 | 12.4 | 12.4 | 3.18 | 32.9 | 8.39 | 15.7 | 6.63 | 6.1 | 3.05 | 8.41 | 1.96 | 8.15 | 4.94 | Kd (15N-labelled NDM-1; Estimated binding constant (Kd), residue 133H_225D, Table S5, per-residue fit, NDM-1 133H_225D): 1.42 mM; Kd (15N-labelled NDM-1; Estimated binding constant (Kd), residue 206G, Table S5, per-residue fit, NDM-1 206G): 7.72 mM; Kd (15N-labelled NDM-1; [18]): 1.31 mM; Kd (15N-labelled NDM-1; [19]): 8.81 mM; Kd (15N-labelled NDM-1; [20]): 21.3 mM; Kd (15N-labelled NDM-1; [21]): 8.64 mM; Kd (15N-labelled NDM-1; Estimated binding constant (Kd), residue 249S, Table S5, per-residue fit, NDM-1 249S): 34 mM; Kd (15N-labelled NDM-1; [22]): 12.3 mM; Kd (15N-labelled NDM-1; [23]): 9.29 mM; Kd (15N-labelled NDM-1; [24]): 18.6 mM; Kd (15N-labelled NDM-1; [25]): 2.2 ± 0.2 mM; IC50 (NDM-1): 0.506 ± 0.333 mM |
| Cc1[nH]c(=S)sc1CC(=O)NC(C1CCCCN1)P(=O)(O)O (centres unmarked) [Compound 5a-1, ((2-(4-Methyl-2-thioxo-2,3-dihydrothiazol-5-yl)acet-amido)(piperidin-2-yl)methyl)phosphonic acid hydro-chloride] | N.I. ^b | 0.353 ± 0.062 | 0.9 ± 0.1 | – | – | – | – | – | – | – | – | – | – | – | – | – | – | – | – | – | – |

From paper PMC10650955, “α-Aminophosphonate inhibitors of metallo-β-lactamases NDM-1 and VIM-2” (RSC Medicinal Chemistry, 2023)
